Measured values taken from the NIST ThermoML archive (doi:10.1021/je034290l).

Assays:
[1] = Liquid
[2] = refractive index (Na D-line) (dimensionless); conditions: 318.15 K; 101.33 kPa; Liquid; Standard Abbe refractometry

CCCC(=O)OC [methyl butanoate]
Conditions	mass density [kg/m3]
[1], 318.15 K, 101.33 kPa	870.24

[1]
Conditions	vapor or sublimation pressure [kPa]
347.53 K	40.12
348.26 K	41.24
349.21 K	42.76
349.79 K	43.84
350.81 K	45.25
351.98 K	46.74
352.34 K	47.92
353.21 K	49.41
353.72 K	50.85
354.96 K	51.83
355.26 K	53.5
356.06 K	54.82
356.79 K	55.89
357.44 K	57.38
358.24 K	58.61
358.9 K	60.02
359.7 K	61.42
360.43 K	62.63
360.93 K	64.13
362.03 K	66.54
362.31 K	68.03
363.2 K	69.42
363.49 K	70.61
363.78 K	71.18
365.02 K	73.5
365.38 K	74.77
365.97 K	75.89
366.41 K	77.39
366.84 K	78.61
367.57 K	80.14
368.01 K	81.39
368.59 K	82.57
369.25 K	83.91
369.95 K	85.71
370.19 K	86.58
370.49 K	87.94
371.07 K	88.35
371.72 K	90.8
371.79 K	92.1
372.31 K	93.26
372.89 K	94.59
373.47 K	95.92
373.84 K	97.46
374.57 K	99.14
374.77 K	100.04
375.24 K	101.32
375.37 K	102.58
375.81 K	104.06
376.02 K	105.47
376.39 K	106.5
376.97 K	107.92
377.55 K	109.23
378.14 K	110.58
378.36 K	112.15
378.79 K	113.36
378.94 K	114.67
379.3 K	115.84
379.67 K	117.27
380.03 K	118.72
380.69 K	120.15
381.2 K	121.36
381.56 K	122.59
381.64 K	124.01
381.85 K	125.24
382.22 K	126.48
382.73 K	127.91
382.95 K	129.4
383.6 K	130.75
383.68 K	132.15
384.33 K	133.49
384.77 K	134.91
384.84 K	135.92
385.06 K	137.27
385.35 K	138.45
385.72 K	140.01
386.06 K	141.27
386.74 K	142.63
386.84 K	144.13
387.1 K	145.37
387.47 K	146.49
387.61 K	147.69
387.98 K	149.24
388.41 K	150.57
388.92 K	151.94
389.02 K	153.4
389.36 K	154.57
390.02 K	156.49
390.16 K	157.37
390.36 K	158.7
390.53 K	160.05
390.89 K	161.18
391.07 K	162.57
391.55 K	163.94
391.98 K	165.7
392.2 K	166.69

Conditions	refractive index
[2]	1.3753
